# Laboratory results taken from ChEMBL document CHEMBL1143568, “A new class of selective myocardial calcium channel modulators. 2. Role of the acetal chain in oxadiazol-3-one derivatives” (J Med Chem, 2005).
# Columns and labels:
# [1] = organism: Cavia porcellus; experiment: Negative inotropic activity as decrease in the developed tension in isolated guinea pig left artium at 5x10E-5 M (n=4-6)
# [2] = organism: Cavia porcellus; experiment: Vasorelaxant activity determined by percentage inhibition of calcium-induced contraction on K+ depolarized guinea pig aortic strip at 5x10E-5 M
# [3] = organism: Cavia porcellus; experiment: Negative inotropic potency as decrease in the developed tension in isolated guinea pig left artium
# [4] = organism: Cavia porcellus; experiment: Negative chronotropic activity was determined as percent decrease in the artial rate in spontaneously beating guinea pig artium at 5x10E-5 M (n=6-8)
# [5] = organism: Cavia porcellus; experiment: Negative inotropic activity as decrease in the developed tension in isolated guinea pig left artium at 5x10E-5 M (n=4-6); remark: listed apart in the source
# [6] = organism: Cavia porcellus; experiment: Negative inotropic activity as decrease in the developed tension in isolated guinea pig left artium 5x10E-5 M (n=4-6)
# [7] = organism: Cavia porcellus; experiment: Negative inotropic activity as decrease in the developed tension in isolated guinea pig left artium at 10E-5 M (n=4-6)
# [8] = organism: Cavia porcellus; experiment: Negative chronotropic activity was determined as percent decrease in the artial rate in spontaneously beating guinea pig artium at5x10E-5 M (n=6-8)
# [9] = organism: Cavia porcellus; experiment: Compound was tested for percent change in maximal rate of the rise in left ventricular pressure in isolated guinea pig atrium
# [10] = organism: Cavia porcellus; experiment: Compound was tested for percent change in atrioventricular conduction time in isolated guinea pig atrium
# [11] = organism: Cavia porcellus; experiment: Compound was tested for percent change in heart rate in isolated guinea pig atrium
# [12] = organism: Cavia porcellus; experiment: Negative inotropic activity as decrease in the developed tension in isolated guinea pig left artium at 10E-6 M (n=4-6)
# [13] = organism: Cavia porcellus; experiment: Negative chronotropic activity was determined as percent decrease in the artial rate in spontaneously beating guinea pig artium at 10E-5 M (n=6-8)
# [14] = organism: Cavia porcellus; experiment: Compound was tested for percent change in coronary perfusion pressure in isolated guinea pig atrium
# [15] = organism: Cavia porcellus; experiment: Vasorelaxant activity determined by percentage inhibition of calcium-induced contraction on K+ depolarized guinea pig aortic strip
SMILES,Decrease [1] [%],Decrease [2] [%],EC50 [3] [nM],Decrease [4] [%],further results
CC1=CSC(OCC(C)C)(c2ccc(Cl)cc2)c2noc(=O)n21 (stereo unspecified),83,37,560,15,
CC1=CS[C@@](OCC2CCCCC2)(c2ccc(Br)cc2)c2noc(=O)n21,78,3,190,8,
CCCCCOC1(c2ccc(Cl)cc2)SC=C(C)n2c1noc2=O (stereo unspecified),,15,,14,Decrease [5]: 45%
CCCCCOC1(c2ccc(Br)cc2)SC=C(C)n2c1noc2=O (stereo unspecified),34,3,,2,
CC/C=C/COC1(c2ccc(Cl)cc2)SC=C(C)n2c1noc2=O (stereo unspecified),46,10,,8,
CCCCCCCCCCCCOC1(c2ccc(Cl)cc2)SC=C(C)n2c1noc2=O (stereo unspecified),,5,870,5,Decrease [6]: 56%
COC1(c2ccc(Cl)cc2)SC=C(C)n2c1noc2=O (stereo unspecified),62,14,1540,22,
CCCCCCCCCCCCCCCCCCO[C@@]1(c2ccc(Br)cc2)SC=C(C)n2c1noc2=O,66,6,970,5,
CC1=CS[C@@](O)(c2ccc(Cl)cc2)c2noc(=O)n21,,26,800,18,Decrease [7]: 80%
CCCOC1(c2ccc(Br)cc2)SC=C(C)n2c1noc2=O (stereo unspecified),69,14,410,,Decrease [8]: 12%
CC/C=C\COC1(c2ccc(Br)cc2)SC=C(C)n2c1noc2=O (stereo unspecified),81,11,630,20,
CC/C=C/COC1(c2ccc(Br)cc2)SC=C(C)n2c1noc2=O (stereo unspecified),43,11,,10,
CCCCCCOC1(c2ccc(Cl)cc2)SC=C(C)n2c1noc2=O (stereo unspecified),68,3,640,10,
CCO[C@@]1(c2ccc(Br)cc2)SC=C(C)n2c1noc2=O,,19,40,,Change [9]: -14%; Change [10]: -3%; Change [11]: -9%; Decrease [12]: 77%; Decrease [13]: 5%; Change [14]: 32%
CCCCCCCCCCCCCCCOC1(c2ccc(Cl)cc2)SC=C(C)n2c1noc2=O (stereo unspecified),69,3,1130,9,
C=CCOC1(c2ccc(Br)cc2)SC=C(C)n2c1noc2=O (stereo unspecified),91,13,550,13,
CCCCCCCCCCCCCCCO[C@@]1(c2ccc(Br)cc2)SC=C(C)n2c1noc2=O,75,,420,12,Decrease [15]: 4%
CC1=CS[C@@](OCC2CCCCC2)(c2ccc(Cl)cc2)c2noc(=O)n21,55,5,240,5,
CCCCOC1(c2ccc(Br)cc2)SC=C(C)n2c1noc2=O (stereo unspecified),82,2,1020,18,
